The target of one assay is T1, Squalene Synthase (Rattus norvegicus, UniProt Q02769).
T1 construct: from tissue; host or cells: rat liver microsomes
T1 sequence (Q02769 1-416): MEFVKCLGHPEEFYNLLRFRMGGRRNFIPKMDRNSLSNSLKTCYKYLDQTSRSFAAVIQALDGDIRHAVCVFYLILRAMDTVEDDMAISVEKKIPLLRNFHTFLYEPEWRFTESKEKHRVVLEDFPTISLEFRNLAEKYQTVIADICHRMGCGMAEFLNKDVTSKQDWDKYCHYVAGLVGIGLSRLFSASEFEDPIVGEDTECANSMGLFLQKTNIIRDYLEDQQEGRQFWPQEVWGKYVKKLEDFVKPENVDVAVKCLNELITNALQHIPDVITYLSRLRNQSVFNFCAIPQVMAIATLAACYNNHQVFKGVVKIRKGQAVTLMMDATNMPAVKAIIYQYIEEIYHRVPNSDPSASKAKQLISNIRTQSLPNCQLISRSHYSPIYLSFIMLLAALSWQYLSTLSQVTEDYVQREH
The experiment in a line: Inhibition of Squalene Synthase (formation of squalene from tritiated farnesyl pyrophosphate, rat liver microsomal protein). Format: biochemical. To be noted: rat liver microsomes, 20 μM 1-[3H]-farnesyl pyrophosphate, 37° C., 15 minutes; read-out: IC50 (concentration which results in a 50% inhibition of squalene production). Here is the method:
(a) Inhibition of Squalene Synthase
In this test, the ability of a compound to prevent the . formation of squalene from a radioactive substrate (tritiated farnesyl pyrophosphate) is assessed.
The test compound is incubated at a concentration of 25 micromolar in 200 μl of a buffered solution containing potassium phosphate (50 mM), MgCl2 (4.95 mM), KF (9.9 mM), NADPH (0.9 mM) and rat liver microsomal protein (20 μg). Rat liver microsomes are prepared by the method described in published European Patent Application No. 324,421 and stored in liquid nitrogen prior to assay. Assay vials are kept at 37° C. throughout the incubation.
The reaction is started with the addition of the substrate (1-[^3 H]-farnesyl pyrophosphate), final concentration 20 μM, and stopped after 15 minutes reaction time with the addition of 50 μl of 4% KOH. The reaction products are separated from unreacted substrate after application to a C-18 octadecyl 1ccBond column (Analytichem Int product No. 617101). An aqueous fraction is eluted with 250 μl of 0.1M KOH. Squalene is then eluted with 1.0 ml 10% ethylacetate in hexane and radioactivity determined. The difference in radioactivity in the presence and absence of the test compound is used to determine the level of inhibition. […] The IC50 can then be determined from a plot of percentage inhibition against concentration of test compound.
On the technique in general: Microsomes from liver hold many membrane-bound enzymes, among them those of drug oxidation.

Assay [1] concerns de novo hepatic cholesterol synthesis. The assay can be described thus: Acute Rat Cholesterol Synthesis Assay (de novo hepatic cholesterol synthesis from exogenously administered 14C-acetate). Format: in vivo. To be noted: female rats, oral gavage, ip or iv dosing (route not given), [2-14C]-acetate ip 1 hour after dose, blood after a further hour. As to the method: (b) Acute Rat Cholesterol Synthesis Assay
This is an acute in vivo test in the rat to measure de novo hepatic cholesterol synthesis from exogenously administered ^14 C-acetate.
Female rats (35-55 g) are housed in reverse lighting conditions (red light from 0200h-1400h) for a period of about 2 weeks prior to test. Animals are allowed free access to chow and drinking water throughout this period. At test, animals should weigh 125-150 g.
Test compounds may be administered by oral gavage, dissolved or suspended in 0.5% polysorbate, or by ip or iv dosing. Control animals receive vehicle alone. After 1 hour the rats are injected ip with 25 μCi [2-^14 C]-acetate (NEN DUPONT. specific activity, 45-60 mCi/mmol NEC-085H, or AMERSHAM specific activity, 50-60 mCi/mmol CFA 14) in a volume of 0.25 ml saline (100 μCi/ml). After a further hour, rats are terminally anaesthetised with halothane and a blood sample obtained from the abdominal vena cava.
1 ml of plasma is lyophilised and then saponified in 2 ml ethanolic KOH (1 part 33% KOH, 9 parts ethanol) at 75° C. for 2 hours. After addition of an equal quantity of water, non-saponifiable lipids are extracted with two 5 ml volumes of hexane. The hexane extracts are evaporated to dryness and the residues dissolved in ethanol to determine cholesterol specific radioactivity. ED50 values can be determined in the standard way.

What is called ED50 is the dose at which the effect has come halfway, by size or by number of responders.

As to `OC1C2CCN(CC2)C1Cc1ccc(-c2ccccc2)cc1` (stereo not drawn) [Example 2, 2-(4-biphenylmethyl)-3-quinuclidinol], the IC50 on Squalene Synthase turned out to be 120 nM.

Consider `c1ccc(-c2ccc(SC3CN4CCC3CC4)cc2)cc1` (stereo not drawn) [Example 10, 3-(4-biphenylthio)quinuclidine], for which the IC50 on Squalene Synthase was 21 nM. The 50% effect level in assay [1] (ED50) was put at a dose of 46 mg/kg.

For the origin of these results see US5612352A, “Heterocyclic compounds” (Zeneca Limited, priority 1992, dated 1997).
